The nature of data set [1]: Tau polymerization with arachidonic acid, electron microscopy. The class given is physicochemical. Conditions: 4 μM tau, 75 μM arachidonic acid. On the procedure:
Tau polymerization was induced using AA according to known methods (King, et al. (1999) Biochemistry 38:14851-14859), except that KCl was substituted for NaCl in the polymerization buffer. […] Briefly, tau protein (4 μM) was incubated at room temperature in reaction buffer (50 mM HEPES, pH 7.6, 50 mM KCl, 5 mM DTT) in the presence of 75 μM AA (in ethanol vehicle). Samples of soluble tau were prepared for perfusion in the same manner, except that arachidonic acid was excluded from the polymerization buffer. Control mixtures containing AA but lacking tau were prepared in parallel. Final ethanol concentration in all samples was 3.8%.
Polymerization reactions were allowed to proceed for 6 hours, fixed with 2% glutaraldehyde, spotted onto 300 mesh formvar/carbon-coated copper grids (Electron Microscopy Sciences, Hatfield, Pa.), and negatively stained with 2% uranyl acetate (King, et al. (1999) supra). […]
To determine whether these domains are involved in FAT inhibition, two tau constructs were assayed, Δ2-18 and 1-421, containing deletions at the extreme amino- and carboxy-termini, respectively. […] Therefore, the formation of tau filaments under these experimental conditions was assessed by electron microscopic analysis.

For the next data set, the system named is squid microtubules. As to the kind of experiment: Microtubule morphology at axoplasm periphery after perfusion. The following applies: 2 μM perfused into axoplasm. The class given is cell-based. From the text:
Microtubule rigidity is increased when tau binds to the microtubule surface, and this effect is observable even at low, nonsaturating tau concentrations (Feigner, et al. (1997) J. Cell Biol. 138:1067-1075; Morfini, et al. (2007) supra). As an additional indicator of hTau40's ability to interact with squid microtubules, axoplasm was perfused with tau and the morphology of microtubules at the axoplasm periphery was examined.

In data set [2] the test system is endogenous squid microtubules. As to the kind of experiment: Microtubule-binding (sedimentation) assay. The following applies: 5 μM tau construct, squid optic lobe cytosol.
The test system of data set [3] is fast axonal transport (FAT) in isolated squid axoplasm. As to the kind of experiment: Squid axoplasm motility assays (vesicle motility). Conditions: for effect on FAT (axonal transport): perfused alone into squid axoplasm (tau 2 μM; ING-135 100 nM); for effect on retrograde FAT rates / effect on anterograde FAT rates: perfused into isolated squid axoplasm; for effect on anterograde FAT rates: 2 μM; for prevention of 2-18 peptide-induced anterograde FAT inhibition: co-perfused with 2-18 peptide; for prevention of 2-18 peptide-induced anterograde FAT inhibition / prevention of 6D tau-mediated anterograde FAT inhibition: I-2 50 nM; for prevention of 6D tau-mediated anterograde FAT inhibition: co-perfused with 6D tau, okadaic acid 200 nM. Type of data set: cell-based, Loligo pealii.

For data set [4] the test system is unchanged. The following applies: cited from earlier work.
The test system of data set [5] is kinesin-1 associated with vesicles. The experiment in a line: Motor proteins on membrane vesicle fractions purified from squid axoplasms. The following applies: 40 minutes incubation.
Experimental: After 40 minutes of incubation, axoplasms were transferred, along with perfusion buffer, to low protein binding 1.5 ml centrifuge tubes containing 200 μl of homogenization buffer (0.25 mM sucrose, 1 mM EDTA, 10 mM Hepes, pH 7.4, 1/100 protease inhibitor cocktail (Sigma), 1/200 phosphatase inhibitor cocktail set II (Calbiochem), 2 μM K252a (Calbiochem), 1 μM PKI (Upstate, Lake Placid, N.Y.)), and carefully homogenized by two passages through a 23-G syringe needle and five passages through a 27-G syringe needle using a 1-ml Hamilton pipette. Axoplasm homogenates were adjusted to 30% iodixanol by mixing 200 μl of axoplasm homogenates with 300 μl of solution D (50% (w/v) iodixanol, 10 mM MgCl2 in 250 mM sucrose). […] Samples were centrifuged at 250,000 g max for 1 hour at 4° C. in an RP55-S SORVALL rotor. Three hundred microliters containing floating vesicles were collected from immediately below the 5% iodixanol interface, and 60 μl of 6× loading sample buffer was added.
To determine whether tau filaments induce the dissociation of kinesin-1 from cargo, “sister” axoplasms were obtained from individual animals and treated with monomeric or filamentous hTau40 (2 μM). […] After 40 minutes of incubation, axoplasmic vesicle fractions were isolated and kinesin-1 levels were evaluated with an antibody against KHCs. […]
Another data set deals with PP2A (Homo sapiens, UniProt P67775). Conditions: even at micromolar concentrations; cited from earlier work.
For another data set, the target named is T1, fyn kinase (Homo sapiens, UniProt P06241).
T1 construct: purchased Millipore
As to the kind of experiment: In vitro phosphorylation of tau by fyn kinase. Conditions: compared to wild-type tau; 1 μM tau. The class given is biochemical. The procedure:
Samples were heated to 60° C. for 5 minutes and separated on 10% acrylamide gels via SDS-PAGE. The proteins were transferred to nitrocellulose membranes, blocked in 2% non-fat dry milk Tris-buffered saline (NFDM-TBS; Tris 50 mM, NaCl 150 mM, pH 7.4). The membranes were incubated in primary antibodies (R1-1:300,000 and 9G3-1:8000) overnight at 4° C. The next day, the membranes were rinsed in TBS+0.1% TWEEN 20 and then incubated in the appropriate secondary antibody (1:5000; diluted in 2% NFDM-TBS). Immunoreactivity was visualized using ECL solution and the level of reactivity was quantified by measuring the optical density of immunoreactive bands with ImageJ software (v1.41, NIH). The average pixel intensities of the main tau bands were measured. Data are expressed as the ratio of 9G3 intensity to R1 intensity (error bars—s.e.m.).
Phosphorylation was carried out at 32° C. for […]. Samples were diluted 1:1 in 2× Laemmli buffer at 0, 10, 20, 40, and 60 minutes to stop the reaction. Samples were stored at −20° C. until used for immunoblotting.
Fyn kinase is a non-receptor tyrosine kinase known to phosphorylate tau at Tyr18 and phosphoTyrl8 (pTyr18) and is found in tau inclusions of AD brains (Lee, et al. (2004) supra). Phosphorylation at Tyr18 by fyn kinase prevents tau-mediated inhibition of anterograde FAT in squid axoplasm.

[6] abbreviates: coperfused with hTau40 filaments (2 μM), SB203580 5 μM, CREBpp 0.5 mM, ING-135 100 nM, okadaic acid 100 nM, inhibitor-2 50 nM.

Like-named read-outs stand apart in the source and are kept apart here. Square brackets hold non-standard residues; d marks the D form. Ends that are not written are not given here. pS = N[C@@H](COP(=O)(O)O)C(=O)O

T1 sequence (P06241 whole entry): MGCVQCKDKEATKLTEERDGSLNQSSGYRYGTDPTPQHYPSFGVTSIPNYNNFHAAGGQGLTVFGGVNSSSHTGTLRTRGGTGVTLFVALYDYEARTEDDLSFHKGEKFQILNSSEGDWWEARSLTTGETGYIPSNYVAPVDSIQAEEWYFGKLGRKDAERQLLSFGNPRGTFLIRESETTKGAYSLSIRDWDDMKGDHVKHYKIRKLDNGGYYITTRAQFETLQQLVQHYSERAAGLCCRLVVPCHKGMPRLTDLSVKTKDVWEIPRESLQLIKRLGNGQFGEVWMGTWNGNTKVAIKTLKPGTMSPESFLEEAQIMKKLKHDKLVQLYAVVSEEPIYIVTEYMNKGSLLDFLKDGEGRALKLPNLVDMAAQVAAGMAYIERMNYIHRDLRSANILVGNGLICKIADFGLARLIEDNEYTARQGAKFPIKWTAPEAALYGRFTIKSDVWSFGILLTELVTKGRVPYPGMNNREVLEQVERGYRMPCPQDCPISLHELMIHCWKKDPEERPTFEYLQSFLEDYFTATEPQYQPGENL
Sequence of PP2A (P67775 whole entry): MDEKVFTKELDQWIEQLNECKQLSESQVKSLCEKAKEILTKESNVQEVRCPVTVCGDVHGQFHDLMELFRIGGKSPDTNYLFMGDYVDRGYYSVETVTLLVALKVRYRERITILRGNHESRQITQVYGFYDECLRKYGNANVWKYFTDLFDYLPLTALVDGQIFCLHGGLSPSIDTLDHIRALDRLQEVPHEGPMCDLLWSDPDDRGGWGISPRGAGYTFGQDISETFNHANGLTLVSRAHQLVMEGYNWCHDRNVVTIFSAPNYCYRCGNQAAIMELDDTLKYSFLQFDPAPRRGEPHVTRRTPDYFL

For the molecule “monomeric hTau40: full-length tau, longest isoform in adult human brain, 441 amino acids, soluble monomer”, the “filament formation under axoplasm perfusion buffer conditions” value in data set [1] is “form morphologically indistinguishable filaments”. Further, in the data set with squid microtubules, the “morphology of peripheral microtubules” value was “caused peripheral microtubules to acquire a straight, rigid appearance”. Further, the “sedimentation with taxol-assembled squid microtubules (supernatant vs pellet)” value in data set [2] was “depleted from the supernatant fraction and found in association with the microtubule-enriched pellet fraction”. Besides, the entries for the “effect on FAT (axonal transport)” value in data set [3] (listed as full-length wild-type tau monomers) and in data set [3] (listed as soluble tau) were “had no effect” and “does not affect”, respectively. Moreover, in data set [3], the “effect on retrograde FAT rates” value is “no effect”. In data set [3], the “effect on anterograde FAT rates” value was “no effect”.
Take “KRREILSRRPpSYR (KRREILSRRP[pS]YR) [CREBpp, reference compound]”: the “effect on FAT, perfused alone” value in data set [4] (CREBpp alone in squid axoplasm) is listed as “has no effect”. Also, the “block of effects of 1-421 tau filaments on FAT” value in data set [3] (coperfused with 1-421 tau filaments) is recorded as “also blocked”. For the same molecule, the “block of tau filament-induced inhibition of anterograde FAT” value in data set [3] (setting [6]) is reported as “blocked”.
As for “active GSK-3β: recombinant, active GSK-3β from Sigma [reference compound]”, in data set [5], the “levels of dynein intermediate chain on vesicles” value is listed as “unaffected”.
With `Cn1cc(C2=C(c3coc4ccccc34)C(=O)NC2=O)c2cc(Br)ccc21` [ING-135, reference compound], in data set [3] (ING-135 100 nM), the “prevention of 2-18 peptide-induced anterograde FAT inhibition” value was “completely prevented” and the “prevention of 6D tau-mediated anterograde FAT inhibition” value was “completely blocked”. The “block of tau filament-induced inhibition of anterograde FAT” value in data set [3] (setting [6]) is reported as “blocked”. Further, in data set [3], the “effect on FAT (axonal transport)” value is reported as “had no effect”.
With `C=C1[C@@H](O)[C@@H]2O[C@]3(CC[C@H](/C=C/[C@@H](C)[C@@H]4CC(C)=C[C@@]5(O[C@H](C[C@@](C)(O)C(=O)O)CC[C@H]5O)O4)O3)CC[C@H]2O[C@@H]1[C@@H](O)C[C@H](C)[C@H]1O[C@@]2(CCCCO2)CC[C@H]1C` [okadaic acid, reference compound], in data set [4] (okadaic acid alone, concentrations up to 1 μM), the “effect on FAT, perfused alone” value is listed as “have no effect”. Moreover, in data set [3] (ING-135 100 nM), the “prevention of 6D tau-mediated anterograde FAT inhibition” value is recorded as “abolished”. The “prevention of 6P tau-mediated anterograde FAT inhibition” value in data set [3] (co-perfused with 6P tau) was “The same effect was noted”. The “block of tau filament-induced inhibition of anterograde FAT” value in data set [3] (setting [6]) is reported as “blocked”.
As for “hTau40 filaments: recombinant hTau40 polymerized into filaments with arachidonic acid”, in the data set on squid microtubules, the “morphology of peripheral microtubules” value is listed as “did not produce changes in microtubule morphology”. Also, in data set [5], the “levels of dynein intermediate chain on vesicles” value is reported as “unaffected”. Besides, in data set [3], the “effect on FAT (axonal transport)” value is “inhibition”, the “effect on retrograde FAT rates” value is on record as “remained unaffected” and the “effect on anterograde FAT rates” value is recorded as “inhibited”. For the same molecule, the “effect on anterograde FAT rates” value in data set [3] (listed as hTau40 F) is “significantly reduced”. The “effect on anterograde FAT rates” value in data set [3] (listed as tau filaments) is given as “inhibit”.
`C[S+]([O-])c1ccc(-c2nc(-c3ccncc3)c(-c3ccc(F)cc3)[nH]2)cc1` (centres unmarked) [SB203580, reference compound]: the “block of tau filament-induced inhibition of anterograde FAT” value in data set [3] is “did not block”.
Turning to AEPRQEFEVMEDHAGTY [2-18 peptide], the “effect on anterograde FAT rates” value in data set [3] is reported as “induced a significant inhibition”; in data set [3] (listed as PAD), “inhibit”.
With inhibitor-2 [reference compound], at PP2A, the “effect on PP2A” value was “has no effect”. Also, in data set [3] (ING-135 100 nM), the “prevention of 2-18 peptide-induced anterograde FAT inhibition” value is “completely prevented” and the “prevention of 6D tau-mediated anterograde FAT inhibition” value was “complete prevention”. Further, the “block of tau filament-induced inhibition of anterograde FAT” value in data set [3] (setting [6]) is recorded as “prevented FAT inhibition”.
On to “K23: tau construct lacking both alternatively spliced N-terminal exons and all four MTBRs [reference compound]”, for which the “sedimentation with taxol-assembled squid microtubules (supernatant vs pellet)” value in data set [2] is “remained in the supernatant fraction”.
As to “AT8 tau: tau with Ser199, Ser202, Thr205 mutated to glutamic acid, AT8 pseudophosphorylated mutant”, in the data set with fyn kinase, the “maximal level of phosphorylation at Tyr18 by fyn kinase” value is reported as “lower” and the “rate of phosphorylation at Tyr18 by fyn kinase” value is listed as “slower”. Further, in data set [3], the “effect on retrograde FAT rates” value is recorded as “unaffected” and the “effect on anterograde FAT rates” value is listed as “significantly reduced”.

(Values after US9862761B2, “Composition and method for preventing or treating a tauopathy” (The Board of Trustees of the University of Illinois, priority 2009, dated 2018).)
